Test results from article PMC7093421, “Perfluorooctane sulfonate (PFOS) and perfluorooctanoate (PFOA) acutely affect human α1β2γ2L GABAA receptor and spontaneous neuronal network function in vitro” (Scientific Reports, 2020).

Target: T1, human α1β2γ2L GABAA receptor (Homo sapiens, UniProt P14867+P18507+P47870)
T1 construct: gene GABRA1; α1β2γ2L receptor expressed in Xenopus laevis oocytes; with GABRB2 (β2) and GABRG2 (γ2L) subunits
Assay: two-electrode voltage clamp in Xenopus oocytes, inhibition of GABA-evoked current ([…] GABA)
Assay type: cell-based

T1 sequence (P14867 28-456): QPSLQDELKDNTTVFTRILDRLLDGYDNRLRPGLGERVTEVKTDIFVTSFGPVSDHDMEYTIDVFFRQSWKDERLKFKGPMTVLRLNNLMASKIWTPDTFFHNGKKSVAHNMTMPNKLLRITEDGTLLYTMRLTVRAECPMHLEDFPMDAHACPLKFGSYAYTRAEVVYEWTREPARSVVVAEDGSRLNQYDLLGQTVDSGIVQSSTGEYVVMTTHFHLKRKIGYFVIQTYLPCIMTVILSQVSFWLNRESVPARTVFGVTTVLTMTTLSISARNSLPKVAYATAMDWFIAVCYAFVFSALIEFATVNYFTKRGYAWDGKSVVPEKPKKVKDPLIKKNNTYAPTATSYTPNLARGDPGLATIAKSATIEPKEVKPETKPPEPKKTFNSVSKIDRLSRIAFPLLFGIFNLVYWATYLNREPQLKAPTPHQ
T1 sequence (P47870 26-512): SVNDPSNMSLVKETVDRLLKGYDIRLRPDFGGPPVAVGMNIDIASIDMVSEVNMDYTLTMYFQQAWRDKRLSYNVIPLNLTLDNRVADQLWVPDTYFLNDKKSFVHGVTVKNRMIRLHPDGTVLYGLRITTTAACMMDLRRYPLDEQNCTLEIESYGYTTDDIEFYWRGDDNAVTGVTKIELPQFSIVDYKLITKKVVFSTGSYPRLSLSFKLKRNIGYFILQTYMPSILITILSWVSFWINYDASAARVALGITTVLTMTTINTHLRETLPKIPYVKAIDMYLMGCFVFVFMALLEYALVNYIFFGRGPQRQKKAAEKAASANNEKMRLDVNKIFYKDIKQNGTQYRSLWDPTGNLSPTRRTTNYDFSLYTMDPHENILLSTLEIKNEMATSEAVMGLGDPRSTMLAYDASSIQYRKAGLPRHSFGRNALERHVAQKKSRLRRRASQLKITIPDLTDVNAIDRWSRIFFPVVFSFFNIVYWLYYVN
T1 sequence (P18507 40-475): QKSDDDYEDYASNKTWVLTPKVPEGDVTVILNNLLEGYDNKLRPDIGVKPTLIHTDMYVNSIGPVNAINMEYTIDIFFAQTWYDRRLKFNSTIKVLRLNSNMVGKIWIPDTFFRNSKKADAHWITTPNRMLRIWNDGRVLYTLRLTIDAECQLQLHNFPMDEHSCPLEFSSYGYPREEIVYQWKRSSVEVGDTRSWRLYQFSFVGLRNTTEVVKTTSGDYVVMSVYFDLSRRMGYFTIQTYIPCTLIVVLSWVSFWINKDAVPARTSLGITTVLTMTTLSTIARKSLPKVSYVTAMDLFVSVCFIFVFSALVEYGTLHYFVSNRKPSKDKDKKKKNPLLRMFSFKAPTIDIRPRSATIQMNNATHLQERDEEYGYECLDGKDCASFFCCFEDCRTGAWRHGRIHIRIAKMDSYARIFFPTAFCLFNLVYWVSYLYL

`O=C(O)C(F)(F)C(F)(F)C(F)(F)C(F)(F)C(F)(F)C(F)(F)C(F)(F)F` [PFOA] gave an IC50 of 6.7 µM.
`O=S(=O)(O)C(F)(F)C(F)(F)C(F)(F)C(F)(F)C(F)(F)C(F)(F)C(F)(F)C(F)(F)F` [PFOS] showed an IC50 of 0.18 µM.
